Laboratory results from US9334267B2, “RAF inhibitor compounds” (Deciphera Pharmaceuticals, LLC, priority 2012, dated 2016).
Like-named read-outs stand apart in the source and are kept apart here.

Legend:
A375res cells [1] = assay: Proliferation assay in vemurafenib-resistant melanoma cells A375res; details: 72 hour proliferation assay
[2] = system: phospho-ERK in HCT-116 cells; assay: HCT-116 cell pERK assay (AlphaScreen SureFire); assay type: cell-based; details: B-Raf wild type, K-Ras mutation
Method: Examples of Formula I are tested against HCT-116 cells harboring wild type B-Raf and K-Ras mutation. The phospho-ERK activities are evaluated as described below.
HCT-116 cells (catalog #CCL-247) are obtained from the American Type Culture Collection (ATCC, Manassas, Va.). Briefly, cells are grown in McCoy's 5A supplemented with 10% characterized fetal bovine serum (Invitrogen, Carlsbad, Calif.), and 1% Penicillin/Streptomycin/L-Glutamine at 37 degrees Celsius, 5% CO2, and 95% humidity. Cells are allowed to expand until reaching 75-90% confluency at which point they are subcultured or harvested for assay use. HCT-116 cells suspended in complete media are added to 384-well tissue culture treated plates (3×10^5 cells/mL; 7,500 cells per well). The cells are incubated overnight at 37 degrees Celsius, 5% CO2, and 95% humidity. Next, test compound or DMSO diluted in complete media is added to the wells (0.25% final DMSO concentration). The plates are then incubated for 4 hours at 37 degrees Celsius, 5% CO2, and 95% humidity. Following compound incubation, the cells are lysed at 4° C. for 20 minutes with shaking. Cell lysates are centrifuged and the supernatant is transferred to a new plate. An aliquot of each lysate is transferred to a white 384-well assay plate. Using the AlphaScreen SureFire pERK kit (Perkin-Elmer, Waltham, Mass.), an acceptor bead mixture is added to each well and incubated for 2 h at room temperature in the dark. A donor bead mixture is then added to each well and incubated for 2 h at room temperature in the dark. Plates are read using a Synergy2 plate reader (Biotek, Winooski, Vt.) in Plate Mode with Timing Control. Read: (F)1: excitation: 680/30 nm, emission: Plug. 2: Excitation: Plug, emission: 570/100 nm. Top mirror 635 nm. Data is analyzed using Prism software (Graphpad, San Diego, Calif.) to calculate IC50 values and Excel software (Microsoft, Redmond, Wash.) to calculate stimulation compared to control.

A375res cells [3] = system: A375res cells

CCCS(=O)(=O)Nc1ccc(F)c(C(=O)c2c[nH]c3ncc(Cl)cc23)c1F [PLX4720, reference compound]
IC50 shift A375 to A375res (A375res cells [1]): more than 27 fold

CCCS(=O)(=O)Nc1ccc(F)c(C(=O)c2c[nH]c3ncc(-c4ccc(Cl)cc4)cc23)c1F [vemurafenib, reference compound]
concentrations at which the pERK signal is stimulated [2]: up to 3 uM
IC50 shift A375 to A375res (A375res cells [3]): more than 57 fold
